{"source": "patent US20240101603A1", "about": "“ANTIBACTERIAL PEPTIDES AND COMPOUNDS TARGETING TOXIN-ANTITOXIN SYSTEM OF […], AND THEIR USE” (SEOUL NATIONAL UNIVERSITY R&DB FOUNDATION, priority 2021, published 2024)", "molecules": {"B1": {"name": "Peptide VapB^71-78, Q75A (peptide)", "peptide": "GMEYARQL"}, "B2": {"name": "Peptide VapB^71-78, Y74A (peptide)", "peptide": "GMEAQRQL"}, "B3": {"name": "Peptide VapB^71-78 (peptide)", "peptide": "GMEYQRQL"}}, "key": {"[1]": {"target": "T1, VapBC complex (Klebsiella pneumoniae subsp. pneumoniae, UniProt A6TG81)", "T1 sequence (A6TG81 1-127)": "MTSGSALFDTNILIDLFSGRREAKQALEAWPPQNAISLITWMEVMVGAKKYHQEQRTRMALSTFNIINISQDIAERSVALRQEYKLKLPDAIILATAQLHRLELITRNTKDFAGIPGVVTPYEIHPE", "T1 sequence (A6TG80 1-82 partner)": "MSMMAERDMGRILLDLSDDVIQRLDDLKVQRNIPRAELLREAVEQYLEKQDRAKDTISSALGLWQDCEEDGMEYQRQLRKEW", "experiment": "VapBC complex disruption assay (RNase activity of VapC released from the complex)", "assay_type": "biochemical", "details": "for VapBC complex disruption efficacy: 1 μM compound added to 10 μM VapBC complex, compared with peptides at 100 μM; for IC50: inhibition curves, 10 μM VapBC complex; for VapBC complex disruption efficacy (RNase activity relative to VapC): 100 μM peptide added to 10 μM VapBC complex", "description": "(§1) The RNase activity of VapC and VapC mutants was confirmed using an RNase Alert Kit (Integrated DNA Technologies, Inc.). In this analysis, each well contained 50 pm of synthetic RNA with a fluorophore at one end and a quencher group at the other end. The quencher was separated when the prepared RNA was contacted by RNase. Then, fluorescence (RFU) generated during the 1 hour reaction period was detected using a SPECTRAmax GEMINI XS spectrometer (Molecular Devices) at 490 nm (excitation wavelength) and 520 nm (emission wavelength), respectively. For this analysis, the purified VapC and VapC mutants were treated with 10 mM EDTA to remove metal ions and exchanged with a purification buffer containing 10 mM Mg^2+. In each experiment, the concentrations of both VapC and VapC mutants were 10 μM. To prevent contamination, 40 units of RiboLock (Thermoscientific) were added to each well.\nIn this example, the peptide (100 μM) synthesized in Example 1 was added to the VapBC complex (10 μM) and the RFU of the activated VapC toxin was measured. Other experimental protocols were the same as those for the RNase activity test of VapC and VapC mutants (Experimental Method 5). Upon addition of the peptide of the present invention to the VapBC complex, the inhibitory efficacy of the peptide can be estimated by measuring the RNase activity generated by the free VapC released by the disruption of the VapBC complex.\nUsing a similar analysis method as in the design of peptides that activate VapC, the inhibitory effect of the compounds was ranked according to the degree of RNase activity by the free VapC released due to the disruption of the VapBC complex. That is, the small molecules were added to the VapBC complex (10 μM) and the efficacy of the small molecules to activate VapC was tested. Other experimental protocols were the same as those described for the peptide-induced complex disruption assay (Examples 2 and 3)."}, "[2]": {"system": "free VapC", "experiment": "Effect on RNase activity of free VapC", "assay_type": "biochemical, Klebsiella pneumoniae", "details": "substance added to free VapC", "description": "as §1\nHowever, if the peptide contains the residues that interact with the nucleic acid binding site of VapC, which is the active site of VapC, the destructive ability is suppressed. Accordingly, in this example, the effect of the peptide of the present invention on the activity of free VapC was analyzed.\nThrough three tests, a total of 400 compounds were narrowed down to 25 according to the inhibitory efficacy ranking. […]"}, "[3]": {"target": "T2, VapC (Klebsiella pneumoniae subsp. pneumoniae, UniProt A6TG81)", "T2 sequence (A6TG81 1-127)": "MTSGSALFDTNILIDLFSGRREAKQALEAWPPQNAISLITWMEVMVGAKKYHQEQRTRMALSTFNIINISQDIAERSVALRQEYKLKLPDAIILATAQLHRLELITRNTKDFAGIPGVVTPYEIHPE", "experiment": "Isothermal titration calorimetry (ITC), binding to VapC", "description": "ITC was performed using MicroCal200 (GE Healthcare). The concentrations of protein and DNA were determined using NanoDrop (Thermo) at 280 nm and 260 nm, respectively. Stock solutions of peptides and small molecules were prepared at appropriate concentrations. Titration was performed at 25° C. The data were calculated by subtracting the background and fitted to a single-site binding model using the provided source-based software with MicroCal200."}, "[4]": {"target": "Klebsiella pneumoniae VapC toxin (kpn_04186) with N-terminal tag (Klebsiella pneumoniae (MGH78578))", "experiment": "ITC, 25 °C, single-site binding model"}, "[5]": {"details": "25° C., single-site binding model"}, "[6]": {"details": "25° C., single-site binding model, read-out: Kd"}, "[7]": {"details": "read-out: Kd (affinity to VapC)"}}, "note": "“Also recorded” adds a separate entry of the source. Read-outs that look alike come from different tables or passages of the source.", "data": [{"molecule": "NC(=O)NC(=O)CCN1CCC(C(=O)c2ccc(O)cc2)CC1", "note": "[Compound 1, N-carbamoyl-3-(4-(4-hydroxybenzoyl)piperidine-1-yl)propanamide]", "values": [{"measurement": "VapBC complex disruption efficacy", "setting": "[1]", "result": "higher efficacy at 1 μM"}, {"measurement": "IC50", "setting": "[1]", "result": 420, "unit": "nM"}, {"measurement": "RNase activity of free VapC after treatment", "setting": "[2]", "result": "did not affect the RNase activity of VapC"}, {"measurement": "TΔS", "setting": "[3]; 25° C.", "result": 1.93, "unit": "kcal/mol"}, {"measurement": "ΔG", "setting": "[3]; 25° C.", "result": -6.37, "unit": "kcal/mol"}, {"measurement": "ΔH", "setting": "[3]; 25° C.", "result": "-8.3 ± 0.03", "unit": "kcal/mol"}, {"measurement": "n (the binding stoichiometry)", "setting": "[3]; [5]", "result": "0.98 ± 0.002"}, {"measurement": "Kd", "setting": "[3]; [6]", "result": "35 ± 0.4", "unit": "nM"}]}, {"molecule": "CCC1Oc2cc(S(=O)(=O)N3CCCC(C(=O)Nc4ccc(F)cc4)C3)c(C)cc2NC1=O", "note": "(stereo not drawn) [Compound 2, 1-((2-ethyl-6-methyl-3-oxo-3,4-dihydro-2H-benzo[b][1,4]oxazine-7-yl)sulfonyl)-N-(4-fluorophenyl)piperidine-3-carboxamide]", "values": [{"measurement": "VapBC complex disruption efficacy", "setting": "[1]", "result": "higher efficacy at 1 μM"}, {"measurement": "IC50", "setting": "[1]", "result": 400, "unit": "nM"}, {"measurement": "RNase activity of free VapC after treatment", "setting": "[2]", "result": "did not affect the RNase activity of VapC"}, {"measurement": "TΔS", "setting": "[3]; 25° C.", "result": 1.39, "unit": "kcal/mol"}, {"measurement": "ΔG", "setting": "[3]; 25° C.", "result": -7.71, "unit": "kcal/mol"}, {"measurement": "ΔH", "setting": "[3]; 25° C.", "result": "-9.1 ± 0.06", "unit": "kcal/mol"}, {"measurement": "n (the binding stoichiometry)", "setting": "[3]; [5]", "result": "0.99 ± 0.004"}, {"measurement": "Kd", "setting": "[3]; [6]", "result": "22 ± 0.2", "unit": "nM"}]}, {"molecule": "GMEAARQL [VapB^71-78, Y74A, Q75A]", "values": [{"measurement": "VapBC complex disruption efficacy (RNase activity relative to VapC)", "setting": "[1]", "result": "lower efficacy than the VapB peptide in which either one was mutated to alanine"}]}, {"molecule": "GMEAQRQL [VapB^71-78, Y74A]", "values": [{"measurement": "VapBC complex disruption efficacy (RNase activity relative to VapC)", "setting": "[1]", "result": "highest efficacy among all the designed peptides; also recorded: higher activity than VapB^71-78"}, {"measurement": "TΔS", "setting": "[3]; 25° C.", "result": -4.17, "unit": "kcal/mol"}, {"measurement": "ΔG", "setting": "[3]; 25° C.", "result": -17.57, "unit": "kcal/mol"}, {"measurement": "ΔH", "setting": "[3]; 25° C.", "result": "-13.4 ± 0.02", "unit": "kcal/mol"}, {"measurement": "n (the binding stoichiometry)", "setting": "[3]; [5]", "result": "0.99 ± 0.001"}, {"measurement": "Kd", "setting": "[3]; [7]", "result": 170, "unit": "nM"}]}, {"molecule": "GMEYARQL [VapB^71-78, Q75A]", "values": [{"measurement": "VapBC complex disruption efficacy (RNase activity relative to VapC)", "setting": "[1]", "result": "higher activity than VapB^71-78"}, {"measurement": "TΔS", "setting": "[3]; 25° C.", "result": -1.53, "unit": "kcal/mol"}, {"measurement": "ΔG", "setting": "[3]; 25° C.", "result": -12.33, "unit": "kcal/mol"}, {"measurement": "ΔH", "setting": "[3]; 25° C.", "result": "-10.8 ± 0.02", "unit": "kcal/mol"}, {"measurement": "n (the binding stoichiometry)", "setting": "[3]; [5]", "result": "0.99 ± 0.001"}, {"measurement": "Kd", "setting": "[3]; [7]", "result": 150, "unit": "nM"}]}, {"molecule": "GMEYQRQL [VapB^71-78]", "values": [{"measurement": "TΔS", "setting": "[3]; 25° C.", "result": -8.4, "unit": "kcal/mol"}, {"measurement": "ΔG", "setting": "[3]; 25° C.", "result": -26.3, "unit": "kcal/mol"}, {"measurement": "ΔH", "setting": "[3]; 25° C.", "result": "-17.9 ± 0.07", "unit": "kcal/mol"}, {"measurement": "n (the binding stoichiometry)", "setting": "[3]; [5]", "result": "1.02 ± 0.002"}, {"measurement": "Kd", "setting": "[3]; [7]", "result": 110, "unit": "nM"}]}, {"molecule": "Klebsiella pneumoniae VapB antitoxin (kpn_04185)", "values": [{"measurement": "Kd", "setting": "[4]", "result": 3, "unit": "nM"}, {"measurement": "TΔS", "setting": "[4]", "result": -16.4, "unit": "kcal/mol"}, {"measurement": "n (the binding stoichiometry)", "setting": "[4]", "result": 0.97}, {"measurement": "ΔH", "setting": "[4]", "result": -28.1, "unit": "kcal/mol"}]}, {"molecule": "B1", "values": [{"measurement": "Kd", "setting": "[4]", "result": 150, "unit": "nM"}, {"measurement": "TΔS", "setting": "[4]", "result": -1.53, "unit": "kcal/mol"}, {"measurement": "n (the binding stoichiometry)", "setting": "[4]", "result": 0.99}, {"measurement": "ΔG", "setting": "[4]", "result": -12.3, "unit": "kcal/mol"}, {"measurement": "ΔH", "setting": "[4]", "result": -10.8, "unit": "kcal/mol"}]}, {"molecule": "B2", "values": [{"measurement": "Kd", "setting": "[4]", "result": 170, "unit": "nM"}, {"measurement": "TΔS", "setting": "[4]", "result": -4.17, "unit": "kcal/mol"}, {"measurement": "n (the binding stoichiometry)", "setting": "[4]", "result": 0.99}, {"measurement": "ΔH", "setting": "[4]", "result": -13.4, "unit": "kcal/mol"}]}, {"molecule": "B3", "values": [{"measurement": "Kd", "setting": "[4]", "result": 110, "unit": "nM"}, {"measurement": "TΔS", "setting": "[4]", "result": -8.4, "unit": "kcal/mol"}, {"measurement": "n (the binding stoichiometry)", "setting": "[4]", "result": 1.02}, {"measurement": "ΔH", "setting": "[4]", "result": -17.9, "unit": "kcal/mol"}]}]}
